Test results taken from patent US9567347B2, “Use of small molecule inhibitors targeting the interaction between RAC GTPase and p67(phox)” (CHILDREN'S HOSPITAL MEDICAL CENTER, priority 2012, dated 2017).
Entries after “also recorded” stand apart in the source; their conditions may differ.

What was measured:
reconstituted NOX2 = biological target: T1, reconstituted NOX2 (Homo sapiens, UniProt P19878); assay: cell-free superoxide production assay; assay type: biochemical; settings: reconstitution conditions, FIG. 7
T1 sequence (P19878 1-526): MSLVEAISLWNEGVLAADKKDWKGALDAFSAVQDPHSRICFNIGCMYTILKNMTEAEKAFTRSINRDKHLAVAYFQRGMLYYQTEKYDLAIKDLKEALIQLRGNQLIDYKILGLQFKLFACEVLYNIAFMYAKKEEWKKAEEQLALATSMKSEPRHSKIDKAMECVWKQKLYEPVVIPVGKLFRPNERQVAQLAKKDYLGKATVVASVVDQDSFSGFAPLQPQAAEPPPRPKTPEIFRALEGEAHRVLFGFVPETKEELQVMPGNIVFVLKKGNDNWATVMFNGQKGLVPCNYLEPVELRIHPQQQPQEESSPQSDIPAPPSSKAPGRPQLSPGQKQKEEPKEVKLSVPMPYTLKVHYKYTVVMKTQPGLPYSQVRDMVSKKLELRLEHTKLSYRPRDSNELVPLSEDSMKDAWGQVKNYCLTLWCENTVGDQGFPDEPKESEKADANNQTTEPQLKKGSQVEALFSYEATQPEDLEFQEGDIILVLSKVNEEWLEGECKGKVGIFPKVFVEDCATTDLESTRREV
Experimental: In order to complement the in silico and cellular results, Phox-I1 and Phox-I2 were tested in cell-free superoxide production assays. Phox-I2 was added to p67 phox (50 nM) in a total volume of 200 μl, and incubated for 30 min at room temperature. A mixture of solubilized macrophage membrane (5 nM cytochrome b 558 heme), p47 phox (50 nM), and Rac1 GMPPNP (nonprenylated) (50 nm), were added. Lithium dodecyl sulfate (LiDS) was added at 130 μM and incubated for 90 sec at room temperature. NADPH was then added (238 μM) and superoxide production measured. In this system, a turnover of 58.88 mol superoxide/sec/mol cytochrome b558 heme was measured. The results were calculated by taking superoxide production in the absence of Phox-I2 as 100% and values obtained with Phox-I2 were expressed as % inhibition. The mean data represent those from six separate experiments.

NOX4 = biological target: T2, NOX4 (Homo sapiens, UniProt Q9NPH5); assay: NOX4 mediated ROS production, luminol chemiluminescence with HRP; assay type: cell-based, mouse; settings: 10 μM, 30 min
T2 construct: expressed in transfected cells; host or cells: primary mouse neutrophils (C57Bl/6 bone marrow), Amaxa nucleofection
T2 sequence (Q9NPH5 1-578): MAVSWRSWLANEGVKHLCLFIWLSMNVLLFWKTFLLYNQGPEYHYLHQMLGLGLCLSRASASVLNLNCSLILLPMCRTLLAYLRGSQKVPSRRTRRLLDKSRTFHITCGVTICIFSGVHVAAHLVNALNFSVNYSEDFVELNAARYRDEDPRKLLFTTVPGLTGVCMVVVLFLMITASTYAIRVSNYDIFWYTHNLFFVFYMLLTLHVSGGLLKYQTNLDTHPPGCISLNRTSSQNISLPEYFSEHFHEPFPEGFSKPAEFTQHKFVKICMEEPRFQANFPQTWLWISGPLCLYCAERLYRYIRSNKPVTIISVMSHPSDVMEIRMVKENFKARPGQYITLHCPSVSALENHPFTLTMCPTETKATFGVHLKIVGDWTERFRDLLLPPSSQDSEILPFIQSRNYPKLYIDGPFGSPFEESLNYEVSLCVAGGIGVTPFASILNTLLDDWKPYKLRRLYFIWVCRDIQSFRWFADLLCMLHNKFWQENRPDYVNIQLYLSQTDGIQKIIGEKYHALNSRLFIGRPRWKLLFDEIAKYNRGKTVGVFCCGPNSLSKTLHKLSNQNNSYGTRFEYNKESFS
T2 sequence (Q61462 1-192 partner): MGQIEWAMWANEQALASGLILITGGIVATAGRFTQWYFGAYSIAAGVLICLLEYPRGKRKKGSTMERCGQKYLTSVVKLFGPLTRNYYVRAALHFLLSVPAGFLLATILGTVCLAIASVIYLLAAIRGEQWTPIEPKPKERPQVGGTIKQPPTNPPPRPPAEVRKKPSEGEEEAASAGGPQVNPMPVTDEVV
Experimental: Primary mouse neutrophils were suspended in 100 μl NucleofectorR solution with 10 μg plasmid pCDNA3-NOX4 encoding NOX4 or mock vector. Cells were transfected using a Cell Line V NucleofactorTMR kit (Amaxa Biosystem, Amaxa Inc.) and the NucleofectorTM program Y-001. Cells were recovered at 37° C. for 2 hours and subjected to the luminol chemiluminescence assay using 10 μM L012 and HRP (0.005 U·mL^−1) to record ROS produced by NOX4 expression.
Phox-I1 was then applied to primary murine neutrophils expressing the constitutively active NOX4. […] To further rule out that Phox-I1 and Phox-I2 may simply act as scavengers of ROS, dHL-60 cells were pre-stimulated with fMLP for 30 min prior to treatment with Phox-I1 or Phox-I2.

p67R38Q = biological target: T3, p67R38Q (Homo sapiens, UniProt P19878, R38Q); assay: microscale thermophoresis binding to p67phox R38Q mutant; settings: residue critical for Rac1-GTP binding
T3 construct: using the pET30-HIS p67(1-212) plasmid; His; made in house; host or cells: E. coli BL21(DE3)
T3 sequence (P19878 1-212 R38Q): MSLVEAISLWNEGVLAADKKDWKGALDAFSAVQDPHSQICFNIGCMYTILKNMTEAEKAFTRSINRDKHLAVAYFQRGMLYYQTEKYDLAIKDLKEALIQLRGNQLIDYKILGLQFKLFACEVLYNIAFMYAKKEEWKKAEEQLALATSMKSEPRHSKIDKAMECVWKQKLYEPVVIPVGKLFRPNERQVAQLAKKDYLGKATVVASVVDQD
Experimental: (§1) The p67^phox protein was expressed in BL21(DE3) bacteria (Stratagene) using the pET30-HIS p67(1-212) plasmid. Protein was purified using the QIAexpress Ni-NTA kit (Qiagen) or the GST Bind Resin Chromatography Kit (Novagen) for RacV12 and RacWT proteins. Mutagenesis was carried out using the Quick Change Lightening Site Directed Mutagenesis Kit (Stratagene).
(§2) Proteins were labeled for microscale thermophoresis using the Monolith NT Protein Labeling Kit Red (Nano Temper Technologies) as recommended by the manufacturer. Binding reactions were carried out using the Monolith NT. 115 (Nano Temper Technologies). Binding data was analyzed using Graphpad Prizm to estimate Kd values. The arbitrary fluorescence value from the thermophoresis plots for the smallest compound titration was subtracted from every other data point (Delta depletion) prior to normalization to a Vmax of 100. In thermophoresis plots where there was no binding, a curve could not be fit and therefore no Vmax could be assigned. In these instances the highest delta depletion value was set to 100 and all data were normalized accordingly.
(§3) Next, to perform a competition binding, p67^phox protein was first incubated with either 5 μM Phox-I1 or an equal volume of vehicle control for 15 min prior to titration of purified Rac1V12 protein. […]

Rac1V12 protein = biological target: T4, Rac1V12 protein (Homo sapiens, UniProt P63000, G12V); assay: microscale thermophoresis binding to Rac1V12; settings: various concentrations
T4 construct: GST; made in house
Experimental: as §1, §2, §3

NOX4 ROS production (NOX4)	binding to p67^phox R38 mutant (p67R38Q)	SMILES	Rac1-GMPPNP induced superoxide burst (reconstituted NOX2)	binding to Rac1V12 (Rac1V12 protein)
–	–	O=[N+]([O-])c1cccc(C2Nc3ccc([N+](=O)[O-])cc3C3C=CCC32)c1 (stereo not shown) [Phox-I2]	dose-dependent inhibition; also recorded: dose-dependently inhibit	–
unresponsive	disrupted the binding ability	COc1ccc2c(c1)C1C=C(c3ccccc3)NN1C(c1cccc([N+](=O)[O-])c1)O2 (stereo not shown) [Phox-I1]	–	unable to bind; also recorded: no detectable binding
